Test results: patent US20110200993A1, “NEW TREATMENT OF AUTOIMMUNE CONDITIONS” (priority 2007, published 2011)

System: system A transporters (including Slc38A1)
Experiment: Effect of blocking system A transport on arthritis in mice
Assay type: in vivo
Excerpt: FIG. 3 is a graph showing the effect of blocking the system A transporters (including Slc38A1) on (A) mean arthritis score and (B) anti collagen antibody production. P=<0.05, n=20.
This confirms that disease susceptibility can be changed both by increased and decreased transporter activity.

**Q.** `CNC(C)(C)C(=O)O` [MeAIB] was tested. Which arthritis susceptibility did it give?
**A.** The arthritis susceptibility was “increases arthritis susceptibility”.
